This passage reports EC50 results from US6608027B1, “Macrocyclic peptides active against the hepatitis C virus” (Boehringer Ingelheim (Canada) Ltd, priority 1999, dated 2003).

Broadly, the EC50 is the concentration that produces a half-maximal response.

Bounds are passed on as bounds.

T1 sequence (P26663 1658-1711): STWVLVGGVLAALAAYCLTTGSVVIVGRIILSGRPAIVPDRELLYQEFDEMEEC
T1 sequence (P26663 1027-1657): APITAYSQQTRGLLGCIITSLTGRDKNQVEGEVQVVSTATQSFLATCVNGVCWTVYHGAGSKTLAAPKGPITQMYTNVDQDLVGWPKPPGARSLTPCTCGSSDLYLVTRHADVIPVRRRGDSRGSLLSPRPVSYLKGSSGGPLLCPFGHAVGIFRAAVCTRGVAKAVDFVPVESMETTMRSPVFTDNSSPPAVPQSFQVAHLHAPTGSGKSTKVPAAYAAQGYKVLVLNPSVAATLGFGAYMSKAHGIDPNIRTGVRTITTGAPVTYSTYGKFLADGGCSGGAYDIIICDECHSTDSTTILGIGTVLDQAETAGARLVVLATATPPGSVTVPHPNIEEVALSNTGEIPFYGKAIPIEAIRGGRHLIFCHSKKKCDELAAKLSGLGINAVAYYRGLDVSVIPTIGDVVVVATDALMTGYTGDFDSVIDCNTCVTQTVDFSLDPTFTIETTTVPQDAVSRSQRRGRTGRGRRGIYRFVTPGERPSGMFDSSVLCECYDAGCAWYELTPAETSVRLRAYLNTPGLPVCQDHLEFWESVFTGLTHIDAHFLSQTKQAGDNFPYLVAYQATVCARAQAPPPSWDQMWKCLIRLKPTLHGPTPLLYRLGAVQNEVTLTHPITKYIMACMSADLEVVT

This test has as its target T1, NS3 protease (Hepatitis C virus genotype 1b, UniProt P26663).
T1 construct: expressed in transfected cells; host or cells: Huh-7 human hepatoma cells, transient co-transfection (CMV promoter)
As to the kind of experiment: NS3 protease cell-based assay (SEAP reporter, Huh-7 cells). Also on record: species or system HCV. Conditions: SEAP activity, 24-hour incubation, read-out: cell. act. (EC50 code). The source says:
This assay is done with Huh-7 cells, a human cell line derived from a hepatoma, co-transfected with 2 DNA constructs: one (called NS3) expressing part of the HCV non-structural polyprotein fused to the tTA protein through an NS5A-NS5B cleavage site in the following order: NS3-NS4A-NS4B-NS5A-(NS5B)tTA where (NS5B) represents the 6 first amino acids of NS5
B. This polyprotein is expressed under the control of the CMV promoter, the other (called SEAP) expressing the reporter protein, secreted alkaline phosphatase (SEAP), under the regulation of a tTA-responsive promoter. The first construct leads to the expression of a polyprotein from which the different mature proteins are released through cleavage by the NS3 protease. It is believed that the mature viral proteins forms a complex at the membrane of the endoplasmic reticulum. tTA is a fusion protein, described by Gossen and Bujard (Proc. Natl. Acad. Sci. USA 89 (1992): 5547-5551), which contains a DNA-binding domain and a transcriptional activator. Release of the tTA protein requires an NS3-dependent cleavage at the NS5A-NS5B cleavage site between NS5A and itself. This last cleavage allows tTA to migrate to the nucleus and transactivate the SEAP gene. Therefore, reduction of NS3 proteolytic activity leads to confinement of tTA to the cytoplasm and concomitant decrease in SEAP activity.
To control for cellular activities other than inhibition of NS3 protease which are due to the compound, a parallel co-transfection is done with a construct expressing tTA alone and the same reporter construct such that SEAP activity is independent of the NS3 protease.
Protocol of the assay: Huh-7 cells, grown in CHO-SFMII (Life Technologies)+10% FCS (fetal calf serum) were co-transfected with the two DNA constructs in the following proportions: 7 μg NS3+500 ng SEAP+[…] FuGENE (Boehringer Mannheim) per 4×10^6 Huh-7 cells. After 5 hours at 37° C., the cells were washed, trypsinized and plated (at 80 000 cells/well) in 96-well plates containing a range of concentrations of the compounds to be tested. After a 24-hour incubation period, the SEAP activity in the medium was measured with the Phospha-Light kit (Tropix).
Analysis of the percent inhibition of SEAP activity with respect to compound concentration was performed with the SAS software to obtain the EC50.
Turning to `COc1ccc2c(O[C@@H]3C[C@H]4C(=O)N[C@]5(C(=O)O)C[C@H]5/C=C\COCCC[C@H](NC(=O)OC(C)(C)C)C(=O)N4C3)cc(-c3ccccc3)nc2c1` [Compound 701], the EC50 is greater than 1 µM.
Consider `COc1ccc2c(O[C@@H]3C[C@H]4C(=O)N[C@]5(C(=O)O)C[C@H]5/C=C\CCCCC[C@H](NC(=O)OC(C)(C)C)C(=O)N4C3)cc(-c3csc(NC(C)=O)n3)nc2c1` [Compound 702], for which the EC50 is no more than 1 µM.
Then `CCNc1nc(-c2cc(O[C@@H]3C[C@H]4C(=O)N[C@]5(C(=O)O)CC5CCCCCCC[C@H](NC(=O)OC(C)(C)C)C(=O)N4C3)c3ccc(OC)cc3n2)cs1` (some centres unmarked) [Compound 703], with no more than 1 µM; and `COc1ccc2c(O[C@@H]3C[C@H]4C(=O)N[C@]5(C(=O)O)C[C@H]5/C=C\CCCCC[C@H](NC(=O)OC(C)(C)C)C(=O)N4C3)cc(-c3ccccn3)nc2c1` [Compound 704], with no more than 1 µM; and `COc1ccc2c(O[C@@H]3C[C@H]4C(=O)N[C@]5(C(=O)O)C[C@H]5/C=C\CCCCC[C@H](NC(=O)OC(C)(C)C)C(=O)N4C3)cc(-c3nccs3)nc2c1` [Compound 705], with no more than 1 µM.
To `COc1ccc2c(O[C@@H]3C[C@H]4C(=O)N[C@]5(C(=O)O)C[C@H]5/C=C\CCCCC[C@H](NC(=O)OC(C)(C)C)C(=O)N4C3)cc(-c3csc(C(C)C)n3)nc2c1` [Compound 707] belongs no more than 1 µM; to `CCNc1nc(-c2cc(O[C@@H]3C[C@H]4C(=O)N[C@]5(C(=O)O)C[C@H]5/C=C\CCCCC[C@H](NC(=O)OC(C)(C)C)C(=O)N4C3)c3ccc(OC)cc3n2)cs1` [Compound 708], no more than 1 µM; to `CCOc1cc(O[C@@H]2C[C@H]3C(=O)N[C@]4(C(=O)O)C[C@H]4/C=C\CCCCC[C@H](NC(=O)OC(C)(C)C)C(=O)N3C2)c2ccc(OC)cc2n1` [Compound 712], no more than 1 µM.
For `COc1ccc2c(O[C@@H]3C[C@H]4C(=O)N[C@]5(C(=O)O)C[C@H]5/C=C\CCCCC[C@H](NC(=O)OC(C)(C)C)C(=O)N4C3)cc(-n3cccc3)nc2c1` [Compound 715], the EC50 was no more than 1 µM.
To `COc1ccc2c(O[C@@H]3C[C@H]4C(=O)N[C@]5(C(=O)O)CC5/C=C\CCCCC[C@H](NC(=O)OC(C)(C)C)C(=O)N4C3)cc(-c3nnc(C)o3)nc2c1` (some centres unmarked) [Compound 716] belongs greater than 1 µM; to `COc1ccc2c(O[C@@H]3C[C@H]4C(=O)N[C@]5(C(=O)O)CC5/C=C\CCCCC[C@H](NC(=O)OC(C)(C)C)C(=O)N4C3)cc(-c3nc(C)no3)nc2c1` (some centres unmarked) [Compound 717], no more than 1 µM.
To `COc1ccc2c(O[C@@H]3C[C@H]4C(=O)N[C@]5(C(=O)O)CC5/C=C\CCCCC[C@H](NC(=O)OC(C)(C)C)C(=O)N4C3)cc(-n3ccnc3)nc2c1` (some centres unmarked) [Compound 718] belongs no more than 1 µM; to `COc1ccc2c(O[C@@H]3C[C@H]4C(=O)N[C@]5(C(=O)O)C[C@H]5/C=C\CCCCC[C@H](NC(=O)OC(C)(C)C)C(=O)N4C3)cc(-c3cccc(C)n3)nc2c1` [Compound 719], no more than 1 µM; to `COc1ccc2c(O[C@@H]3C[C@H]4C(=O)N[C@]5(C(=O)O)CC5/C=C\CCCCC[C@H](NC(=O)OC(C)(C)C)C(=O)N4C3)cc(-n3cnc(C)c3)nc2c1` (some centres unmarked) [Compound 722], no more than 1 µM.
In the case of `COc1ccc2c(O[C@@H]3C[C@H]4C(=O)N[C@]5(C(=O)O)CC5/C=C\CCCCC[C@H](NC(=O)OC(C)(C)C)C(=O)N4C3)cc(-c3nc(C(C)C)cs3)nc2c1` (some centres unmarked) [Compound 725], the EC50 is no more than 1 µM.
Then `COc1ccc2c(O[C@@H]3C[C@H]4C(=O)N[C@]5(C(=O)O)CC5/C=C\CCCCC[C@H](NC(=O)OC(C)(C)C)C(=O)N4C3)cc(-c3nccn3C)nc2c1` (some centres unmarked) [Compound 726], with no more than 1 µM; and `COCc1cc(O[C@@H]2C[C@H]3C(=O)N[C@]4(C(=O)O)C[C@H]4/C=C\CCCCC[C@H](NC(=O)OC(C)(C)C)C(=O)N3C2)c2ccc(OC)cc2n1` [Compound 727], with greater than 1 µM.
On to `COc1ccc2c(O[C@@H]3C[C@H]4C(=O)N[C@]5(C(=O)O)C[C@H]5/C=C\CCCCC[C@H](NC(=O)OC(C)(C)C)C(=O)N4C3)cc(C)nc2c1` [Compound 728], for which the EC50 is greater than 1 µM.
`CNc1nc(-c2cc(O[C@@H]3C[C@H]4C(=O)N[C@]5(C(=O)O)C[C@H]5/C=C\CCCCC[C@H](NC(=O)OC(C)(C)C)C(=O)N4C3)c3ccc(OC)cc3n2)cs1` [Compound 729]: the EC50 was no more than 1 µM.
As for `COc1ccc2c(O[C@@H]3C[C@H]4C(=O)N[C@]5(C(=O)O)C[C@H]5/C=C\CCCCC[C@H](NC(=O)OC(C)(C)C)C(=O)N4C3)cc(-c3csc(N)n3)nc2c1` [Compound 731], the EC50 is no more than 1 µM.
Then `COc1ccc2c(O[C@@H]3C[C@H]4C(=O)N[C@]5(C(=O)O)C[C@H]5/C=C\CCCCC[C@H](NC(=O)OC(C)(C)C)C(=O)N4C3)cc(C3CCC=CO3)nc2c1` (some centres unmarked) [Compound 732], with greater than 1 µM; and `COc1ccc2c(O[C@@H]3C[C@H]4C(=O)N[C@]5(C(=O)O)CC5/C=C\CCCCC[C@H](NC(=O)OC(C)(C)C)C(=O)N4C3)cc(-n3cccn3)nc2c1` (some centres unmarked) [Compound 733], with no more than 1 µM; and `COc1ccc2c(O[C@@H]3C[C@H]4C(=O)N[C@]5(C(=O)O)CC5/C=C\CCCCC[C@H](NC(=O)OC(C)(C)C)C(=O)N4C3)cc(-n3cc(C)cn3)nc2c1` (some centres unmarked) [Compound 734], with no more than 1 µM.
Then `COc1ccc2c(O[C@@H]3C[C@H]4C(=O)N[C@]5(C(=O)O)C[C@H]5/C=C\CCCCC[C@H](NC(=O)OC(C)(C)C)C(=O)N4C3)cc(-c3csc(NC=O)n3)nc2c1` [Compound 735], with no more than 1 µM.
Consider `COC(=O)Nc1nc(-c2cc(O[C@@H]3C[C@H]4C(=O)N[C@]5(C(=O)O)C[C@H]5/C=C\CCCCC[C@H](NC(=O)OC(C)(C)C)C(=O)N4C3)c3ccc(OC)cc3n2)cs1` [Compound 736], for which the EC50 was no more than 1 µM.
Then `COc1ccc(-c2cc(O[C@@H]3C[C@H]4C(=O)N[C@]5(C(=O)O)C[C@H]5/C=C\CCCCC[C@H](NC(=O)OC(C)(C)C)C(=O)N4C3)c3ccc(OC)cc3n2)nc1` [Compound 737], with no more than 1 µM.
Take `COc1ccc2c(O[C@@H]3C[C@H]4C(=O)N[C@]5(C(=O)O)CC5/C=C\CCCCC[C@H](NC(=O)OC(C)(C)C)C(=O)N4C3)cc(-n3ccc(C)n3)nc2c1` (some centres unmarked) [Compound 738]: the EC50 is no more than 1 µM.
For `COc1ccc2c(O[C@@H]3C[C@H]4C(=O)N[C@]5(C(=O)O)C[C@H]5/C=C\CCCCC[C@H](NC(=O)OC(C)(C)C)C(=O)N4C3)cc(-c3csc(NC(C)C)n3)nc2c1` [Compound 741], the EC50 was no more than 1 µM.
Then `CCNc1nc(-c2cc(O[C@@H]3C[C@H]4C(=O)N[C@]5(C(=O)O)CC5/C=C\CCCCC[C@H](NC(=O)OC5CCCC5)C(=O)N4C3)c3ccc(OC)cc3n2)cs1` (some centres unmarked) [Compound 810], with no more than 1 µM.
Then `CNc1nc(-c2cc(O[C@@H]3C[C@H]4C(=O)N[C@]5(C(=O)O)CC5/C=C\CCCCC[C@H](NC(=O)OC5CCCC5)C(=O)N4C3)c3ccc(OC)cc3n2)cs1` (some centres unmarked) [Compound 811], with no more than 1 µM.
To `COC(=O)Nc1nc(-c2cc(O[C@@H]3C[C@H]4C(=O)N[C@]5(C(=O)O)CC5/C=C\CCCCC[C@H](NC(=O)OC5CCCC5)C(=O)N4C3)c3ccc(OC)cc3n2)cs1` (some centres unmarked) [Compound 818] belongs no more than 1 µM; to `COc1ccc2c(O[C@@H]3C[C@H]4C(=O)N[C@]5(C(=O)O)CC5/C=C\CCCCC[C@H](NC(=O)OC5CCCC5)C(=O)N4C3)cc(-c3csc(NC(=O)OCC(C)C)n3)nc2c1` (some centres unmarked) [Compound 819], no more than 1 µM.
